According to patent publication US20100048921A1, “PHARMACEUTICALLY ACTIVE COMPOUNDS” (priority 2007, published 2010):

System: thrombocytes (platelet-rich plasma)
Assay: Collagen-induced thrombocyte aggregation in platelet-rich plasma (aggregometry, PAP-8E)
Format: cell-based, human
Details: for End point (FA) / Maximum aggregation (MA): substance 50 μM
Method: The substances used, genistein, glu-glu, DMSO, ala-ala were provided by the company Sigma-Aldrich, Munich. For the measurement, the Platelet Aggregation Profiler Model PAP-8E of the company Bio/Data Corporation, an 8-channel aggregometer with a computerised digital curve creation, has been used.
After the taking of a blood sample from a large calibre vein in unbuffered citrate 10%, the whole blood which is achieved by this is centrifugated with about 1,500 RPM for 10 min. The platelet-rich plasma (PRP) which is achieved by this then has to rest for 45 min. at ambient temperature. At the same time, […] for the creation of the respective blank values is gained from the same sample with common centrifugation. For the measurement, cuvettes with a volume of 0.25 ml are used.
Stock solutions of the substances to be tested, including genistein as well as the peptides ala-ala and glu-glu which are used, are prepared in a ratio of 1 mg on 1 ml, genistein as well as the tested coupling products in DMSO, glu-glu and ala-ala in H2O.

[1] = collagen 1 μg/ml, listed as genistein

Q: Which results are given for `O=c1c(-c2ccc(O)cc2)coc2cc(O)cc(O)c12` [Genistein, genistein]?
A: active concentration which starts to be effective (collagen-induced aggregation, own specification): 50 µM; aggregation of the platelets (genistein 50 μM, collagen 1 μg/ml, reference (no additive) 90%): 82%; aggregation (genistein 100 μM, collagen 1 μg/ml, reference (no additive) 90%): 50%; thrombocyte aggregation (genistein 200 μM, collagen 1 μg/ml): almost completely inhibited; End point (FA) (collagen 1 μg/ml): 82%; Maximum aggregation (MA) (collagen 1 μg/ml): 85%; End point (FA) [1]: 82%; Maximum aggregation (MA) [1]: 85%
